Here are results for 2 molecules from US20170258817A1, “FOSFESTROL FOR USE IN CURATIVE OR PALLIATIVE TREATMENT OF PROSTATE CANCER” (CHAMAELEO PHARMA BVBA, priority 2012, published 2017).

In series [1] the test system is DU-145 hormone-independent prostate cancer cell line. Put plainly: in vitro direct cytotoxicity, Cell titer blue viability assay. The class given is cell-based. As to conditions: Homo sapiens; DU-145, 72 hrs incubation. The protocol: (§1) Cells were maintained in vitro in RPMI 1640 containing 10% (v/v) heat inactivated fetal bovine serum (FBS) and 2 mM L-glutamine (growth media) at 37° C. in 5% CO2 and humidified conditions. Cells were harvested, washed, re-suspended into growth medium and counted. The cells were re-suspended into assay media (RPMI 1640+1% (v/v) heat inactivated FBS+ and 2 mM L-glutamine) at 0.5×10^5 cells/ml for DU-145 cells and 1×10^5 for LNCaP cells, and plated into 96-well assay plates (Corning, black-wall plates) and 50 μl/well aliquots.
(§2) Plates were incubated O/N at 37° C. in 5% humidified CO2 prior to addition of the compounds. […] Fosfestrol was dissolved in sterile water at stock concentration of 60 mM. Stocks of all compounds were then serially diluted. Final concentrations to which cells were exposed were: 300, 150, 75, 37.5, 18.75, 9.4, 4.7, 2.3, 1.2 and 0.6 μM. Positive control was Taxotere. Taxotere was diluted in 100% DSMO to give a stock concentration of 1 mM. Stock was serial diluted and final concentration to which cells were exposed was: 1000, 333.3, 111.1, 37.0, 12.3, 4.1, 1.4, 0.5, and 0.2 nM.
(§3) Plates were incubated for 72 hrs at 37° C. in 5% humidified CO-2 after addition of the compounds. Viability of the cells was assessed with the Cell titer blue® (Promega) assay. […] Fluorescence was measured with a Flex II station plate reader. […]
On the technique in general: Alamar Blue is a resazurin reagent that responds to reducing activity.

For series [2], the system named is LNCaP hormone-dependent prostate cancer cell line. The description is as above. As to conditions: Homo sapiens, 72 hrs incubation. The class given is cell-based. The protocol:
as §1, §2, §3

The test system of series [3] is DU-145 prostate cancer cells. Particulars: through inhibition of microtubule formation; cited from earlier work.
A further series has as its system prostate cancer cells. As to conditions: cited from earlier work.
For series [4] the following is noted: buccal administration; cited from earlier work.
In a further series the test system is prostate cancer. As to conditions: 5 mg of DES p.o. per day; cited from earlier work.

As for `CC(=O)O[C@@]12CO[C@@H]1C[C@H](O)[C@@]1(C)C(=O)[C@H](O)C3=C(C)[C@@H](OC(=O)[C@H](O)[C@@H](NC(=O)OC(C)(C)C)c4ccccc4)C[C@@](O)([C@@H](OC(=O)c4ccccc4)[C@H]21)C3(C)C` [Taxotere], the IC50 amounted to 4 nM in series [1] and 2 nM in series [2].

For `CC/C(=C(/CC)c1ccc(O)cc1)c1ccc(O)cc1` [DES, diethylstilbestrol], the “effect on DU-145 prostate cancer cells” value in series [3] is listed as “cytotoxic effects”. In the series with prostate cancer cells, the “DES concentrations that do not influence prostate cancer cell growth” value was “up to 100 ng/ml” and the “minimal concentration of DES to induce some cytotoxic effects” value is 1 µg/mL. Also, in series [4], the “DES plasma level, on average” value is 11 ng DES/ml and the “induction of thromboembolic activator (Fibrinogen)” value was “without inducing a thromboembolic activator (Fibrinogen)”. For the same molecule, the “increase of non-cancer related deaths, mostly cardiovascular” value in the series with prostate cancer was 36%.

The term IC50 denotes the concentration that gives 50% inhibition. A higher IC50 goes with a need for much substance.
